{
  "source": "patent EP0555116B1",
  "about": "“Compositions based on antiseptics and their applications” (HUTCHINSON, priority 1992, dated 1993)",
  "key": {"S. aureus ATCC 6538": {"test_system": "S. aureus ATCC 6538", "assay": "Growth inhibition test (DGHM, Essai 2, Tables A-C), 72 h at 37°C; non/A/B/C = without or with inactivating substances A, B, C", "format": "cell-based, Staphylococcus aureus", "procedure": "(§1) Un autre essai a été réalisé à partir des solutions suivantes : • 100 ml d'une solution à 0,1 % de digluconate de chlorhexidine (pH 6) et • 100 ml d'une solution à 0,1 % de Bardac 22®.\nL'activité de ces solutions, seules ou en combinaison a été plus particulièrement testée vis-à-vis de Staphylococcus aureus ATCC 6538, Escherichia coli ATCC 11229 et Candida albicans ATCC 10231.\n(§2) Les tests ont été réalisés conformément au protocole décrit dans le Chapitre I/2.1 et 2.2 de Richtlinien für die Prüfung und Bewertung chemischer Desinfektionsverfahren der DGHM, Stand 1.1., 1981).\nLes Tableaux A, B et C illustrent respectivement l'activité bactéricide et fongicide d'une solution aqueuse à 0,1 % de digluconate de chlorhexidine, d'une solution aqueuse à 0,1 % de Bardac 22® et d'un mélange à part égale des deux composés. Les protocoles dont ces Tableaux illustrent les résultats comprennent une incubation de 72 heures à 37°C et l'utilisation, comme témoins, des substances inactivantes suivantes : A : Tween® 80 3 % + lécithine 0,3 % + cystéine 0,1 %; B : Tween® 80 3 % + saponine 3 % + cystéine 0,1 % + histidine 0,1 %; C : Tween® 80 3 % + lécithine 0,3 % + histidine 0,1 % + thiosulfate de sodium 0,5 %.\nDans ces Tableaux, le signe \"+\" indique une croissance et le signe \"-\" l'absence de croissance."}, "[1]": {"test_system": "Candida albicans ATCC 1031", "assay": "Disinfection time test (Essai 2, Tables D-F), reaction at 22°, subcultures 72 h at 37°C", "format": "cell-based", "procedure": "as §1, §2\nLes tests dont les résultats sont illustrés aux Tableaux D, E et F ont été réalisés à une température de réaction de 22° avec une incubation des sous-cultures 72 heures à 37°C avec comme substances inactivantes : Tween® 80 3 % + saponine 3 % + cystéine 0,1 % + histidine 0,1 %; ces Tableaux illustrent respectivement l'activité bactéricide et fongicide d'une solution aqueuse à 0,1 % de digluconate de chlorhexidine, d'une solution aqueuse à 0,1 % de Bardac 22® et d'un mélange à part égale des deux composés et montrent l'action des antiseptiques précités, en fonction du temps de contact, et font apparaître la même synergie d'action de l'association que ci-dessus, dans la mesure où l'association des deux composés permet de diminuer significativement leur concentration, pour l'obtention d'un même effet. TABLEAU D"}},
  "data": [
    {"compound": "CCCCCCCCCC[N+](C)(C)CCCCCCCCCC", "note": "[Bardac®, chlorure de didécyldiméthylammonium]", "values": [
      {"measurement": "croissance", "setting": "S. aureus ATCC 6538; Conc. 0,1 % (vol/vol), A", "result": "+"},
      {"measurement": "croissance", "setting": "S. aureus ATCC 6538; Conc. 0,1 % (vol/vol), B", "result": "+"},
      {"measurement": "croissance", "setting": "S. aureus ATCC 6538; Conc. 0,1 % (vol/vol), C", "result": "+"},
      {"measurement": "croissance", "setting": "S. aureus ATCC 6538; Conc. 0,1 % (vol/vol), non", "result": "-"},
      {"measurement": "croissance", "setting": "S. aureus ATCC 6538; Conc. 0,05 % (vol/vol), A", "result": "+"},
      {"measurement": "croissance", "setting": "S. aureus ATCC 6538; Conc. 0,5 % (vol/vol), A", "result": "+"},
      {"measurement": "croissance", "setting": "S. aureus ATCC 6538; Conc. 0,05 % (vol/vol), B", "result": "+"},
      {"measurement": "croissance", "setting": "S. aureus ATCC 6538; Conc. 0,5 % (vol/vol), B", "result": "+"},
      {"measurement": "croissance", "setting": "S. aureus ATCC 6538; Conc. 0,05 % (vol/vol), C", "result": "+"},
      {"measurement": "croissance", "setting": "S. aureus ATCC 6538; Conc. 0,5 % (vol/vol), C", "result": "+"},
      {"measurement": "croissance", "setting": "S. aureus ATCC 6538; Conc. 0,05 % (vol/vol), non", "result": "+"},
      {"measurement": "croissance", "setting": "S. aureus ATCC 6538; Conc. 0,5 % (vol/vol), non", "result": "-"},
      {"measurement": "croissance", "setting": "S. aureus ATCC 6538; Conc. 1,0 % (vol/vol), A", "result": "+"},
      {"measurement": "croissance", "setting": "S. aureus ATCC 6538; Conc. 1,0 % (vol/vol), B", "result": "+"},
      {"measurement": "croissance", "setting": "S. aureus ATCC 6538; Conc. 1,0 % (vol/vol), C", "result": "+"},
      {"measurement": "croissance", "setting": "S. aureus ATCC 6538; Conc. 1,0 % (vol/vol), non", "result": "-"},
      {"measurement": "croissance", "setting": "S. aureus ATCC 6538; Conc. 0,00625 % (vol/vol), A", "result": "+"},
      {"measurement": "croissance", "setting": "S. aureus ATCC 6538; Conc. 0,00625 % (vol/vol), B", "result": "+"},
      {"measurement": "croissance", "setting": "S. aureus ATCC 6538; Conc. 0,00625 % (vol/vol), C", "result": "+"},
      {"measurement": "croissance", "setting": "S. aureus ATCC 6538; Conc. 0,00625 % (vol/vol), non", "result": "+"},
      {"measurement": "croissance", "setting": "S. aureus ATCC 6538; Conc. 0,0125 % (vol/vol), A", "result": "+"},
      {"measurement": "croissance", "setting": "S. aureus ATCC 6538; Conc. 0,0125 % (vol/vol), B", "result": "+"},
      {"measurement": "croissance", "setting": "S. aureus ATCC 6538; Conc. 0,0125 % (vol/vol), C", "result": "+"},
      {"measurement": "croissance", "setting": "S. aureus ATCC 6538; Conc. 0,0125 % (vol/vol), non", "result": "+"},
      {"measurement": "croissance", "setting": "S. aureus ATCC 6538; Conc. 0,025 % (vol/vol), A", "result": "+"},
      {"measurement": "croissance", "setting": "S. aureus ATCC 6538; Conc. 0,025 % (vol/vol), B", "result": "+"},
      {"measurement": "croissance", "setting": "S. aureus ATCC 6538; Conc. 0,025 % (vol/vol), C", "result": "+"},
      {"measurement": "croissance", "setting": "S. aureus ATCC 6538; Conc. 0,025 % (vol/vol), non", "result": "+"},
      {"measurement": "concentration en substance active inhibant la croissance", "setting": "S. aureus ATCC 6538; antiseptique seul", "result": "0,0001%"},
      {"measurement": "croissance", "setting": "[1]; Conc. 0,1 % (vol/vol), 1 min", "result": "+"},
      {"measurement": "croissance", "setting": "[1]; Conc. 0,1 % (vol/vol), 3 min", "result": "+"},
      {"measurement": "croissance", "setting": "[1]; Conc. 0,1 % (vol/vol), 5 min", "result": "+"},
      {"measurement": "croissance", "setting": "[1]; Conc. 0,1 % (vol/vol), 15 min", "result": "+"},
      {"measurement": "croissance", "setting": "[1]; Conc. 0,1 % (vol/vol), 30 min", "result": "+"},
      {"measurement": "croissance", "setting": "[1]; Conc. 0,1 % (vol/vol), 60 min", "result": "+"},
      {"measurement": "croissance", "setting": "[1]; Conc. 0,05 % (vol/vol), 1 min", "result": "+"},
      {"measurement": "croissance", "setting": "[1]; Conc. 0,5 % (vol/vol), 1 min", "result": "+"},
      {"measurement": "croissance", "setting": "[1]; Conc. 0,05 % (vol/vol), 3 min", "result": "+"},
      {"measurement": "croissance", "setting": "[1]; Conc. 0,5 % (vol/vol), 3 min", "result": "+"},
      {"measurement": "croissance", "setting": "[1]; Conc. 0,05 % (vol/vol), 5 min", "result": "+"},
      {"measurement": "croissance", "setting": "[1]; Conc. 0,5 % (vol/vol), 5 min", "result": "+"},
      {"measurement": "croissance", "setting": "[1]; Conc. 0,05 % (vol/vol), 15 min", "result": "+"},
      {"measurement": "croissance", "setting": "[1]; Conc. 0,5 % (vol/vol), 15 min", "result": "+"},
      {"measurement": "croissance", "setting": "[1]; Conc. 0,05 % (vol/vol), 30 min", "result": "+"},
      {"measurement": "croissance", "setting": "[1]; Conc. 0,5 % (vol/vol), 30 min", "result": "+"},
      {"measurement": "croissance", "setting": "[1]; Conc. 0,05 % (vol/vol), 60 min", "result": "+"},
      {"measurement": "croissance", "setting": "[1]; Conc. 0,5 % (vol/vol), 60 min", "result": "+"},
      {"measurement": "croissance", "setting": "[1]; Conc. 1 % (vol/vol), 1 min", "result": "+"},
      {"measurement": "croissance", "setting": "[1]; Conc. 1 % (vol/vol), 3 min", "result": "+"},
      {"measurement": "croissance", "setting": "[1]; Conc. 1 % (vol/vol), 5 min", "result": "+"},
      {"measurement": "croissance", "setting": "[1]; Conc. 1 % (vol/vol), 15 min", "result": "+"},
      {"measurement": "croissance", "setting": "[1]; Conc. 1 % (vol/vol), 30 min", "result": "-"},
      {"measurement": "croissance", "setting": "[1]; Conc. 1 % (vol/vol), 60 min", "result": "-"},
      {"measurement": "croissance", "setting": "[1]; Conc. 5 % (vol/vol), 1 min", "result": "+"},
      {"measurement": "croissance", "setting": "[1]; Conc. 5 % (vol/vol), 3 min", "result": "+"},
      {"measurement": "croissance", "setting": "[1]; Conc. 5 % (vol/vol), 5 min", "result": "-"},
      {"measurement": "croissance", "setting": "[1]; Conc. 5 % (vol/vol), 15 min", "result": "-"},
      {"measurement": "croissance", "setting": "[1]; Conc. 5 % (vol/vol), 30 min", "result": "-"},
      {"measurement": "croissance", "setting": "[1]; Conc. 5 % (vol/vol), 60 min", "result": "-"},
      {"measurement": "croissance", "setting": "[1]; Conc. 10 % (vol/vol), 1 min", "result": "-"},
      {"measurement": "croissance", "setting": "[1]; Conc. 10 % (vol/vol), 3 min", "result": "-"},
      {"measurement": "croissance", "setting": "[1]; Conc. 10 % (vol/vol), 5 min", "result": "-"},
      {"measurement": "croissance", "setting": "[1]; Conc. 10 % (vol/vol), 15 min", "result": "-"},
      {"measurement": "croissance", "setting": "[1]; Conc. 10 % (vol/vol), 30 min", "result": "-"},
      {"measurement": "croissance", "setting": "[1]; Conc. 10 % (vol/vol), 60 min", "result": "-"},
      {"measurement": "croissance", "setting": "[1]; Conc. 25 % (vol/vol), 1 min", "result": "-"},
      {"measurement": "croissance", "setting": "[1]; Conc. 25 % (vol/vol), 3 min", "result": "-"},
      {"measurement": "croissance", "setting": "[1]; Conc. 25 % (vol/vol), 5 min", "result": "-"},
      {"measurement": "croissance", "setting": "[1]; Conc. 25 % (vol/vol), 15 min", "result": "-"},
      {"measurement": "croissance", "setting": "[1]; Conc. 25 % (vol/vol), 30 min", "result": "-"},
      {"measurement": "croissance", "setting": "[1]; Conc. 25 % (vol/vol), 60 min", "result": "-"}
    ]}
  ]
}
